Strand notation (5' to 3'): a small letter for the sugar, then the base; units joined by * are phosphorothioate-linked, units joined directly phosphodiester-linked; [ ] holds rarer units or linkages, { } end groups; capitals alone tell only the bases. k = constrained ethyl (cEt); [5mC] = 5-methylcytosine; d = 2'-deoxy (DNA)
System: Yap1 mRNA
Assay: Antisense inhibition of human Yap1 in A-431 cells by cEt gapmers, single dose (Example 4, RTS4814)
Assay type: cell-based
Summary of the method: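 A-431 cells took up 3-10-3 cEt gapmers (16-mer, full phosphorothioate, 5-methylcytosines) by free uptake at 2,000 nM for about 48 h. Yap1 mRNA was quantified by qRT-PCR, normalized to total RNA (RIBOGREEN), and reported as % of untreated control.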

[1] = Yap1 mRNA remaining as percent of untreated control, 3-10-3 cEt gapmers, A-431 cells, Table 37
[2] = Table 15, A-431 cells, 5,000 cells per well, free uptake, 2,000 nM, approximately 48 hours, RTS4814, normalized to RIBOGREEN, Yap1 mRNA relative to untreated control, * = targets amplicon region of primer probe set
[3] = Table 16, A-431 cells, 5,000 cells per well, free uptake, 2,000 nM, approximately 48 hours, RTS4814, normalized to RIBOGREEN, Yap1 mRNA relative to untreated control cells
[4] = Table 14, A-431 cells, 5,000 cells per well, free uptake, 2,000 nM, approximately 48 hours, RTS4814, normalized to RIBOGREEN, Yap1 mRNA relative to untreated control, * = targets amplicon region of primer probe set
[5] = Yap1 mRNA remaining as percent of untreated control, 3-10-3 cEt gapmers, A-431 cells, Table 36
[6] = Table 17, A-431 cells, 5,000 cells per well, free uptake, 2,000 nM, approximately 48 hours, RTS4814, normalized to RIBOGREEN, Yap1 mRNA relative to untreated control cells

For “1076311 (kT*kA*kT*dA*dA*d[5mC]*d[5mC]*d[5mC]*dT*dA*dT*dA*d[5mC]*kT*kT*kG; antisense) [compound 1076311]”, the “YAP1 (% UTC)” value [1] was 56 % UTC.
For “1074657 (antisense kT*k[5mC]*k[5mC]*d[5mC]*d[5mC]*d[5mC]*d[5mC]*dA*dG*dA*d[5mC]*dT*dT*kA*kA*kT) [Compound 1074657]”, the “YAP1 (% UTC)” value [2] was 59 % UTC.
“1076449 (k[5mC]*k[5mC]*kT*dT*dA*dT*dA*dA*dT*dG*d[5mC]*dA*dA*kT*k[5mC]*k[5mC]; antisense) [Compound 1076449]” was tested, and the “YAP1 (% UTC)” value [2] was 2 % UTC.
With “1076450 (k[5mC]*kT*kT*dG*dA*dA*dT*dA*dG*d[5mC]*dT*dA*dT*kG*kT*kG; antisense) [Compound 1076450]” the “YAP1 (% UTC)” value [3] was 13 % UTC.
With “1075106 (antisense k[5mC]*kA*kA*dA*dT*dT*dA*dT*dA*dA*dG*dG*dT*k[5mC]*k[5mC]*kT) [Compound 1075106]” the “YAP1 (% UTC)” value [3] was 10 % UTC.
“1074400 (antisense kG*kA*kT*dT*dT*dA*dG*dA*dA*dT*dT*d[5mC]*dA*kG*kT*k[5mC]) [Compound 1074400]” was tested, and the “YAP1 (% UTC)” value [4] was 42 % UTC.
In the case of “1074496 (kA*kA*kT*dA*dA*d[5mC]*d[5mC]*dA*dT*d[5mC]*d[5mC]*d[5mC]*dA*kA*kG*k[5mC]; antisense) [Compound 1074496]”, the “YAP1 (% UTC)” value [4] is reported as 69 % UTC.
With “1074914 (antisense kT*kT*kA*d[5mC]*dA*dT*d[5mC]*d[5mC]*d[5mC]*dG*dA*dG*dT*kG*kG*kG) [Compound 1074914]” the “YAP1 (% UTC)” value [3] was 97 % UTC.
In the case of “1076150 (kA*kT*kT*dT*dA*dT*dT*dA*dA*d[5mC]*dT*d[5mC]*dA*k[5mC]*kG*kA; antisense) [compound 1076150]”, the “YAP1 (% UTC)” value [5] is reported as 11 % UTC.
For “1076384 (kT*kA*kT*dA*dA*dG*dG*dG*dA*d[5mC]*dT*dT*dG*k[5mC]*kT*kG; antisense) [Compound 1076384]”, the “YAP1 (% UTC)” value [4] was 25 % UTC.
“1074550 (DNA kA*kT*kA*dT*d[5mC]*dT*dA*d[5mC]*d[5mC]*dG*dT*dA*dT*kG*k[5mC]*k[5mC]; antisense) [compound 1074550]” was tested, and the “YAP1 (% UTC)” value [5] was 23 % UTC.
With “1076258 (k[5mC]*kT*kT*dT*dA*dG*dG*dT*dG*d[5mC]*d[5mC]*dT*d[5mC]*k[5mC]*kT*kT; antisense) [Compound 1076258]” the “YAP1 (% UTC)” value [3] was 10 % UTC.
In the case of “1074144 (antisense kA*kG*k[5mC]*dG*dG*d[5mC]*dG*dA*d[5mC]*dG*dG*d[5mC]*dT*kG*k[5mC]*kG) [Compound 1074144]”, the “YAP1 (% UTC)” value [4] is reported as 92 % UTC.
With “1075714 (kA*kA*kT*dT*dA*d[5mC]*dA*dA*dT*d[5mC]*dA*dA*d[5mC]*k[5mC]*kT*kT; antisense) [Compound 1075714]” the “YAP1 (% UTC)” value [3] was 42 % UTC.
For “1074369 (antisense kT*kG*kA*dT*dA*dG*dT*dA*dT*d[5mC]*dA*d[5mC]*d[5mC]*kT*kG*kT) [Compound 1074369]”, the “YAP1 (% UTC)” value [2] was 19 % UTC.
For “1075331 (kG*kA*kT*dA*dA*dA*d[5mC]*dA*d[5mC]*dT*dG*d[5mC]*dA*kG*kA*kG; antisense) [Compound 1075331]”, the “YAP1 (% UTC)” value [6] was 33 % UTC.
“1075235 (antisense kA*kG*kT*dA*dA*dA*dT*dA*d[5mC]*dT*d[5mC]*dT*dA*kG*kT*kT) [Compound 1075235]” was tested, and the “YAP1 (% UTC)” value [6] was 38 % UTC.
“1076417 (k[5mC]*kT*kT*dT*dA*d[5mC]*dA*d[5mC]*d[5mC]*dG*dA*dA*dA*kT*kG*kA; antisense) [Compound 1076417]” was tested, and the “YAP1 (% UTC)” value [2] was 42 % UTC.
“1075105 (antisense kA*kA*kT*dT*dA*dT*dA*dA*dG*dG*dT*d[5mC]*d[5mC]*kT*kA*k[5mC]) [Compound 1075105]” was tested, and the “YAP1 (% UTC)” value [2] was 42 % UTC.
In the case of “1074135 (k[5mC]*k[5mC]*kG*d[5mC]*dG*dG*d[5mC]*d[5mC]*d[5mC]*d[5mC]*dG*d[5mC]*dA*kT*k[5mC]*k[5mC]; antisense) [compound 1074135]”, the “YAP1 (% UTC)” value [1] is reported as 91 % UTC.
“1075488 (antisense k[5mC]*kA*kG*dA*dA*dT*dA*dA*dG*dG*dG*dA*dG*kA*kT*k[5mC]) [Compound 1075488]” was tested, and the “YAP1 (% UTC)” value [4] was 56 % UTC.
With “1076535 (kA*kT*kT*dT*dT*dT*dA*dG*d[5mC]*dT*d[5mC]*dG*d[5mC]*kA*kA*kT; antisense) [compound 1076535]” the “YAP1 (% UTC)” value [1] was 28 % UTC.
In the case of “1075552 (kG*kA*kT*dT*dA*dT*dA*dA*d[5mC]*dA*dT*dG*d[5mC]*kT*kG*kT; antisense) [Compound 1075552]”, the “YAP1 (% UTC)” value [4] is reported as 74 % UTC.
For “1075107 (antisense kT*kA*kA*dA*dA*dA*d[5mC]*dA*dT*dT*dG*dT*dG*kG*k[5mC]*k[5mC]) [Compound 1075107]”, the “YAP1 (% UTC)” value [6] was 114 % UTC.
“1074294 (antisense kT*kT*kG*dG*dA*dG*dT*dT*dG*d[5mC]*dT*dG*d[5mC]*k[5mC]*kA*k[5mC]) [compound 1074294]” was tested, and the “YAP1 (% UTC)” value [5] was 80 % UTC.
With “1074134 (k[5mC]*kG*k[5mC]*dG*dG*d[5mC]*d[5mC]*d[5mC]*d[5mC]*dG*d[5mC]*dA*dT*k[5mC]*k[5mC]*k[5mC]; antisense) [compound 1074134]” the “YAP1 (% UTC)” value [5] was 79 % UTC.
In the case of “1075671 (kG*kA*kT*dA*dT*dA*dT*dA*dT*dG*dA*dT*dG*kG*kA*k[5mC]; antisense) [compound 1075671]”, the “YAP1 (% UTC)” value [1] is reported as 37 % UTC.
“1076385 (kA*kT*kA*dT*dA*dA*dG*dG*dG*dA*d[5mC]*dT*dT*kG*k[5mC]*kT; antisense) [Compound 1076385]” was tested, and the “YAP1 (% UTC)” value [2] was 32 % UTC.
With “1075841 (kA*kT*kT*dT*dA*dG*dG*dT*dA*d[5mC]*dT*d[5mC]*dA*kG*kT*kA; antisense) [Compound 1075841]” the “YAP1 (% UTC)” value [2] was 27 % UTC.
For “1074690 (antisense k[5mC]*k[5mC]*kT*d[5mC]*d[5mC]*d[5mC]*d[5mC]*d[5mC]*dT*dA*dA*dG*d[5mC]*kT*kA*kA) [Compound 1074690]”, the “YAP1 (% UTC)” value [3] was 81 % UTC.
In the case of “1075510 (kG*kA*kA*dT*dA*dA*d[5mC]*dA*d[5mC]*dA*dT*dA*dA*kT*k[5mC]*k[5mC]; antisense) [compound 1075510]”, the “YAP1 (% UTC)” value [5] is reported as 83 % UTC.
“1074593 (antisense kA*kG*kG*dA*dG*d[5mC]*dA*dA*dG*dT*d[5mC]*dT*dT*kG*kT*kA) [Compound 1074593]” was tested, and the “YAP1 (% UTC)” value [2] was 6 % UTC.
“1076480 (antisense kG*kT*kA*dA*dA*dT*dA*dT*d[5mC]*d[5mC]*dA*dT*dT*kA*k[5mC]*k[5mC]) [Compound 1076480]” was tested, and the “YAP1 (% UTC)” value [4] was 72 % UTC.
For “1074208 (antisense kG*kT*kG*d[5mC]*dA*d[5mC]*dG*dA*dT*d[5mC]*dT*dG*dA*kT*kG*k[5mC]) [Compound 1074208]”, the “YAP1 (% UTC)” value [4] was 96 % UTC.
With “1074689 (antisense k[5mC]*kT*k[5mC]*d[5mC]*d[5mC]*d[5mC]*d[5mC]*dT*dA*dA*dG*d[5mC]*dT*kA*kA*kA) [Compound 1074689]” the “YAP1 (% UTC)” value [2] was 70 % UTC.

From patent publication US11214803B2, “Modulators of YAP1 expression” (Ionis Pharmaceuticals, Inc., priority 2019, dated 2022)
